Laboratory results reported in paper PMC4807533, “Specific tracking of xylan using fluorescent-tagged carbohydrate-binding module 15 as molecular probe” (Biotechnology for Biofuels, 2016).
Like-named read-outs stand apart in the source and are kept apart here.

Molecular target: T1, OC15 (mOrange2-CBM15 fusion probe) (Cellvibrio japonicus, UniProt Q59675)
T1 construct: gene xyn10C; CBM15 domain of xylanase Xyn10C, C-terminal; N-terminal His6-mOrange2 reporter, tags kept; single Gly linker; synthetic gene, pET11a, E. coli BL21-Gold(DE3)pLysS; primers imply CBM15 begins VAAS and ends at stop after EAYSAN
T1 sequence (Q59675 86-247): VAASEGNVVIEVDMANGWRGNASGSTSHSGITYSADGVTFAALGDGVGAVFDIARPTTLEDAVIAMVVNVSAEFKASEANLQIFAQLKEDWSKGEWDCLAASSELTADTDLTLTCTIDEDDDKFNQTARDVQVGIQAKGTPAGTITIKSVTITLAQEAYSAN
Test: isothermal titration calorimetry
Assay type: binding
Settings: 20 mM Tris-HCl pH 7.5, 20 mM NaCl, 5 mM CaCl2, 25 °C
Excerpt: isothermal titration calorimetry on OC15 (mOrange2-CBM15 fusion probe)

| Kd (read-out: K a × 10^3 (M^-1) (converted)) [µM] | Kd (read-out: K d) [µM] | Kd (cellohexaose of 90 % purity, read-out: K a × 10^3 (M^-1) (converted)) [µM] | Kd (cellohexaose of 90 % purity, read-out: K d) [µM] | SMILES |
| --- | --- | --- | --- | --- |
| 29.4 | 29.4 | – | – | OC1OC[C@@H](O[C@@H]2OC[C@@H](O[C@@H]3OC[C@@H](O[C@@H]4OC[C@@H](O[C@@H]5OC[C@@H](O[C@@H]6OC[C@@H](O)[C@H](O)[C@H]6O)[C@H](O)[C@H]5O)[C@H](O)[C@H]4O)[C@H](O)[C@H]3O)[C@H](O)[C@H]2O)[C@H](O)[C@H]1O (stereo partly shown) [xylohexaose] |
| – | – | 476 | 479 | OC[C@H]1O[C@@H](O[C@H]2[C@H](O)[C@@H](O)[C@H](O[C@H]3[C@H](O)[C@@H](O)[C@H](O[C@H]4[C@H](O)[C@@H](O)[C@H](O[C@H]5[C@H](O)[C@@H](O)[C@H](O[C@H]6[C@H](O)[C@@H](O)C(O)O[C@@H]6CO)O[C@@H]5CO)O[C@@H]4CO)O[C@@H]3CO)O[C@@H]2CO)[C@H](O)[C@@H](O)[C@@H]1O (stereo partly shown) [cellohexaose] |
